The values that follow come from patent US12617770B2, “IRAK inhibitor and preparation method therefor and use thereof” (WUHAN CREATERNA SCIENCE AND TECHNOLOGY CO., LTD., priority 2019, dated 2026).

By IC50 is commonly meant the concentration that gives 50% inhibition.

Data set [1] can be described thus: Plasma protein binding (PPB), equilibrium dialysis, rat plasma. It counts as in vitro ADME. To be noted: 5 h at 37° C., read-out: Plasma protein binding (Bound %) Rat (converted). As for the experimental part:
The experiment is intended to determine plasma protein binding (PPB) data of the test compounds disclosed herein.
In the PPB experiment, the final administration matrix contained the test compound or a reference compound with a concentration of 1 μM and DMSO with a content of 0.2%.
Collecting samples in initial time: 25 μL of the matrix containing the compound was added into a blank 96-well collecting plate, and the plate was stored at −20° C.
An equilibrated dialysis device was prepared. 100 μL of buffer was added to the receiving side of the equilibrium dialysis plate. Then 100 μL of the administration matrix containing the compound or the reference compound was added into an administration side of the equilibrium dialysis plate. The prepared equilibrium dialysis plate was placed in a 37° C. shaker to be shaken for 5 h at 60 rpm.
Sample was prepared at the end of cultivation (5 h): Preparing sample in the receiving side: 25 μL of sample from a receiving side was taken out and placed in a 96-well sample collecting plate, and 25 μL of a corresponding matrix (blank plasma) was added for mixing: 200 μL of ACN containing an internal standard was added, shaken for 10 minutes at 600 rpm, and centrifuged at 5594 g for 15 min.
Preparing sample in the administration side: 25 μL of the sample containing test compound and reference compound from the administration side was taken out and 25 μL of a blank buffer was added for mixing; 200 μL of ACN containing an internal standard was added, shaken for 10 minutes at 600 rpm, and centrifuged at 5594 g for 15 min.
Preparing sample in initial time: the sample containing test compound and reference compound was re-melted at 37° C. in initial time and then mixed with the corresponding matrix (blank buffer) in the same volume (25 μL); 200 μL of ACN containing an internal standard was added, shaken for 10 minutes at 600 rpm, and centrifuged at 5594 g for 15 min.
After all the samples were centrifuged, 50 μL of a supernatant was taken and added into 50 μL of ultrapure water for mixing, and the samples were sent to liquid chromatography-mass spectrometry.
A general note: Equilibrium dialysis compares concentrations on both sides of a semipermeable membrane.

A further data set addresses T1, human IRAK1 (Homo sapiens, UniProt P51617).
T1 construct: purchased Cama (so in the source)
In words: IRAK1 MSA (Mobility-Shift Assay) at Km concentration of ATP. The format is biochemical. As to conditions: for IC50: read-out: IRAKI IC50; for IRAKI IC50 (nM)/ IRAK4 IC50 (nM): selectivity ratio IRAK1 to IRAK4. As for the experimental part: This assay evaluated the inhibitory effect of the compounds on human IRAK1 activity with the same materials as in Test Example 1.
A recombinant fusion protein of N-terminal GST (glutathione-S-transferase) and human IRAK1 was used as enzyme (GST-IRAK1, kinase IRAK1, Cama) at a final concentration of 3 nM: ATP (Sigma) was at a final concentration of 97 μM; the substrates used for the kinase reaction were 5-FAM (5-carboxyfluorescein)-labeled polypeptide (5-FAM-[…]-COOH) and substrate peptide FAM-P8 (GL Biochem) at final concentrations of 5 μM.
In this assay, 500 μM stock solutions of the compounds were prepared in 100% DMSO, and serially 4-fold diluted to the 10th concentration gradient with 100% DMSO, followed by a 10-fold dilution in the compound buffer (50 mM HEPES, pH 7.5, 0.00015% Brij-35) to give intermediate dilutions of the compounds at a final concentration of 10 μM−0.04 nM containing 10% DMSO. 5 μL of the intermediate dilution was transferred into a black 384-well plate.
IRAK1 was diluted to 7.5 nM in the kinase buffer (50 mM HEPES, pH 7.5, 0.00015% Brij-35, 2 mM DTT). 10 μL of the IRAK1 dilution was transferred to the 384-well plate and co-incubated with the compound for 10-15 min.
The substrate and ATP were diluted to 12.5 μM and 242.5 μM with reaction buffer (50 mM HEPES, pH 7.5, 0.00015% Brij-35, 10 mM MgCl2), respectively. 10 μL of the dilution was transferred to a 384-well plate and incubated at 28° C. for 1 h. The reaction was terminated by adding 25 μL of 50 mM EDTA to the 384-well plate.
The inhibition of IRAK1 by the compounds was calculated by measuring the rate of phosphorylated substrate using a Caliper EZ Reader (PerkinElmer) and the IC50 was calculated by XL-fit software.

Another data set has as its system TNF-α release. Briefly: Inhibition of cytokine TNF-α release in LPS-induced Balb/c female mice. The format is in vivo. As to conditions: oral gavage 16 h before LPS (i.p. 0.2 mg/kg); serum 1.5 h after stimulation. As for the experimental part: Female Balb/c mice were randomized into groups, each containing 4 mice, including a control+vehicle group, a model+vehicle group, a model+reference group and model+compound groups. The control animals received an intraperitoneal injection of normal saline (10 mL/kg) and the model animals received LPS stimulation (Sigma CAT #L2630, i.p., 10 mL/kg, 0.2 mg/kg). To the test compounds, DMSO, Solutol and 10 mM PBS were sequentially added to prepare a solution or suspension of required concentration for administration. For the vehicle, DMSO, Solutol and 10 mM PBS were mixed in a volume ratio of 5:15:80. The animals were administered through oral gavage (10 mL/kg) 16 h before LPS (or saline) stimulation at predetermined doses, and euthanized with CO2 at 1.5 h after the stimulation for cardiac blood collection. The whole blood was not anticoagulated, incubated in wet ice for 1.5 h, and centrifuged at 2000×g at 4° C. for 10 min to separate the serum. Serum was frozen at −80° C. for TNF-α assay. Quantification of TNF-α was done by TNF-α ELISA kit according to the manufacturer's instructions. The readings of absorbance at A450 were measured with a microplate reader SpectraMax i3x (Molecular Device) for calculating the inhibition of the compounds, and IC50 was calculated with GraphPad Prism 7.0 software. […] In particular, some exemplary compound inhibition rate values are as follows: […]

A further data set deals with T2, CYP2C19 (Homo sapiens, UniProt P33261).
T2 construct: co-incubated at 7 concentrations with human liver microsomes and five probe substrates; tissue Corning (USA); host or cells: mixed (pooled) human liver microsomes
Briefly: CYP450 inhibition in human liver microsomes, CYP2C19. As to conditions: pooled (mixed) human liver microsomes, probe mephenytoin. It counts as in vitro ADME. As for the experimental part:
This study was intended to investigate the inhibitory effect of the test compounds on 5 major enzymes in human P450 superfamily, CYP1A2, 2C9, 2C19, 2D6 and 3A4-M. The mixed human liver microsomes used in this assay were purchased from Corning (USA). The test compound (compound 14) was co-incubated at 7 concentrations with human liver microsomes and five probe substrates (phenacetin for CYP1a2, diclofenac for CYP2C9, mephenytoin for CYP2C19, dextromethorphan for CYP2D6, midazolam for CYP3A4-M, mixed). The reaction was initiated by adding coenzyme NADPH, and terminated by adding acetonitrile containing internal standard. After the proteins were precipitated, the supernatant was centrifuged. The characteristic metabolites in the supernatant (acetaminophen for CYP1A2, 4-hydroxydiclofenac for CYP2C9, 4-hydroxymephenytoin for CYP2C19, dextrorphan for CYP2D6, 1-hydroxymidazolam for CYP3A4-M) were analyzed by LC-MS/MS. The influence of the test compounds on production of the characteristic metabolites was finally analyzed on the basis of the data obtained. A selective inhibitor (ketoconazole for CYP3A4-M) may be used as positive control. All samples were tested in duplicate.

T1 sequence (P51617 whole entry): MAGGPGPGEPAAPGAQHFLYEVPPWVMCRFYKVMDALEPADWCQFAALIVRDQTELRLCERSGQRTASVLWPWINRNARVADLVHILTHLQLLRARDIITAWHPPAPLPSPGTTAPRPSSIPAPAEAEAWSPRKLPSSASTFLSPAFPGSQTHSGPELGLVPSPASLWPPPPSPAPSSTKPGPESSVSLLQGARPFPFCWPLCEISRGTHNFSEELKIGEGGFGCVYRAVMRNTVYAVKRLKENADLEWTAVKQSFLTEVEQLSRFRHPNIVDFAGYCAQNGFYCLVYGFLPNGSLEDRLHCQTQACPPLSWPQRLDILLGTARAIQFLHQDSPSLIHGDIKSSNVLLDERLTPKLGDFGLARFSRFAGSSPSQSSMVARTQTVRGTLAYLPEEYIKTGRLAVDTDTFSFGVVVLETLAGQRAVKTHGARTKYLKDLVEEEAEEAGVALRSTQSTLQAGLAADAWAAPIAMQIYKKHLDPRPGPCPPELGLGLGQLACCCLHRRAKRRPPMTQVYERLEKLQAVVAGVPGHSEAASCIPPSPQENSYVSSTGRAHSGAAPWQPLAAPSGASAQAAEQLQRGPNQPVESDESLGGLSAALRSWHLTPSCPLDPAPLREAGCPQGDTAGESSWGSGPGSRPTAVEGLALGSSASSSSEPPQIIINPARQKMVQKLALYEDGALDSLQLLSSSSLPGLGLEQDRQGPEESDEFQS
T2 sequence (P33261 whole entry): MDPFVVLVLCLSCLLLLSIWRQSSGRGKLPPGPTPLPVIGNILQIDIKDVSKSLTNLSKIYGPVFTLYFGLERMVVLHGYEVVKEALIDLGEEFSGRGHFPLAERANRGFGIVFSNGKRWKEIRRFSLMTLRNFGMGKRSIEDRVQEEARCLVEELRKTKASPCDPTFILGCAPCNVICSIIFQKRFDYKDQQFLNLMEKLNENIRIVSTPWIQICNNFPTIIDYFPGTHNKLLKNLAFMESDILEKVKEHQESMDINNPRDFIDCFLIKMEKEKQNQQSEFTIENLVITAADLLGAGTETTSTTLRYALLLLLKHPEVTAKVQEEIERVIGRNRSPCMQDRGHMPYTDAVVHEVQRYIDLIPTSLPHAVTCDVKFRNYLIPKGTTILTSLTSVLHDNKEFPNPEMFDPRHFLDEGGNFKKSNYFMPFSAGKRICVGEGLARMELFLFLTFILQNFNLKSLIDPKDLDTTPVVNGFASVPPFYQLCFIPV

In the case of `COc1cc2nn([C@H]3CC[C@](C)(O)CC3)cc2cc1NC(=O)c1cccc(C)[n+]1[O-]` [Compound 001, 2-((2-((1r,4r)-4-hydroxy-4-methylcyclohexyl)-6-methoxy-2H-indazol-5-yl)carbamoyl)-6-methylpyridine 1-oxide], the fraction unbound at 5 h, 1 μM in data set [1] is 0.153. Moreover, at human IRAK1, the IC50 stood at 4.04 µM and the “IRAKI IC50 (nM)/ IRAK4 IC50 (nM)” value is reported as 673.2. Further, in the data set on TNF-α release, the “Inhibition rate (%) of TNF-α” value is on record as 74.00%. At CYP2C19, this compound showed a half-inhibitory concentration (IC50) of more than 30 µM.

As to `COc1cc2nn(CCC(C)(C)O)cc2cc1NC(=O)c1cccc(C)[n+]1[O-]` [Compound 163, 2-((2-(3-hydroxy-3-methylbutyl)-6-methoxy-2H-indazol-5-yl)carbamoyl)-6-methylpyridine 1-oxide], in data set [1], the fraction unbound at 5 h, 1 μM was 0.194. Moreover, the IC50 on human IRAK1 was 2.99 µM; at CYP2C19, more than 30 µM. Moreover, the “IRAKI IC50 (nM)/ IRAK4 IC50 (nM)” value on human IRAK1 stood at 130.1. Moreover, the “Inhibition rate (%) of TNF-α” value with TNF-α release worked out at 71.56%.
